A short description of series [1]: MFFT testing, coalescing efficiency. As to the method:
The MFFT samples were prepared by weighing out 20 grams (+/−0.01 g) of emulsion into 50 ml beakers. The beakers of emulsion were placed on magnetic stirrers and the coalescing aid added dropwise by pipet. The weight of the drops were determined by adding 40 drops of the coalescing aid to a tared weighing dish, then the weight per drop was calculated by taking an average of the total weight (total weight divided by 40 drops). The coalescing aid was added to the emulsion based on solids by weight. The MFFT samples were allowed to stir for approximately 15 minutes, transferred to 8 dram vials and placed onto lab rollers and allowed to equilibrate for at least 24 hours. The samples were then drawn down on the MFFT bar, which is typically set on range #2 (0° to 18° C.), and the films allowed to dry. The areas in which the films have stopped cracking are visually determined and the MFFT value is read from the scale on the instrument and converted to degrees Fahrenheit. Linear Regression was used to calculate the amount of coalescing aid required to lower the films MFFT to 40° F. In Table #5, the phr40 values (parts per hundred resin based on solids by weight) are the amount of coalescing aid required to reduce the MFFT to 40° F. A lower number indicates the coalescent is more efficient at reducing the MFFT of the film.

Series [2] can be described thus: Water miscibility, % organic in water method (gravimetric). Conditions: saturation point. The format is physicochemical. The procedure:
(§1) Water miscibility was measured by the following methods:
% Organic in Water Method:
The novel coalescent was added drop wise to 25 mL Milli-Q water and the mixture stirred at 1000 rpm for 10 minutes. If the coalescent dissolved, an additional drop or drops were added until traces of the organic solvent remained after the mixture had been stirred for 20 minutes. The percent organic solvent at the saturation point was determined gravimetrically.

The nature of series [3]: Hydrolytic stability in latex at 120° F., pH and Brookfield viscosity. Type of series: physicochemical. The procedure:
Approximately 100 grams of either Rhoplex AC 2508 (Rohm & Haas acrylic polymer emulsion) or Rhoplex SG-10M (Rohm & Haas acrylic polymer emulsion) was weighed out into a 4 ounce jar and 10 phr (parts per hundred resin) of the coalescing aid was added (based on percent solids of the emulsion by weight). The sample was placed on lab rollers for 24 hours before the initial pH and viscosity was taken. The viscosity was measured by a Brookfield viscometer in centipoises. The sample was then placed into a lab oven at 120° F. The pH and viscosity was checked weekly for four weeks (Tables 3 & 4). Any change in the appearance of the sample such as gel particles or phase separation was recorded weekly also.

Series [4] is described as follows: Boiling point of coalescent. The format is physicochemical. The procedure:
The novel compounds were evaluated for their coalescing properties and compared to 2,2,4-trimethylpentane-1,3-diol monoisobutyrate (Texanol) and Optifilm Enhancer 400 (OE 400), two coalescents that are widely used in industry (Table 2).

A further series in a line: Density, ASTM D 1475-98. Type of series: physicochemical.
The nature of series [5]: Water miscibility, % water in solvent method (Karl Fischer). The format is physicochemical. Conditions: stirred approx. 48 hours. The procedure:
as §1
% Water in Solvent Method:
Approximately 5-10 mL of the novel coalescent was slowly added to 10-15 mL Milli-Q water in an 8-dram vial. The mixture was slowly stirred for approximately 48 hours at 100-150 rpm. The organic layer was analyzed in triplicate for percent water by Karl Fischer methodology.

A short description of series [6]: % non-volatile, 110° C. for 1 hour (ASTM D2369). The settings on record: 110° C. for 1 hour. The format is physicochemical. As to the method: 2,2,4-trimethyl-3-oxopentanoate esters useful as reactive coalescents according to the invention include those having a weight percent volatile content of less than 50%, as measured according to ASTM Method D2369. This test may be conducted generally by heating the sample in a forced air oven at 110° C. for 60 minutes. The weight loss after the test is deemed to result from a loss of volatiles originally present in the sample; the percent volatile present in the original sample may then be calculated. Although the cited test can be conducted on coating compositions containing other components such as latex polymers, the values cited herein may be obtained from a sample of the coalescent itself. Thus, the weight percent volatile of a coalescent may be used herein as a yardstick to measure the amount of VOC the coalescent would contribute to the VOC of a coating composition.

Where [7] appears, read: latex Acronal 296D, linear regression.
[8] abbreviates: latex Rhoplex SG-10M, linear regression.
The mark [9] stands for this setting: latex Ucar 379G, linear regression.
The mark [10] stands for this setting: Rhoplex SG-10M, 10 phr coalescent, Initial.
[11] abbreviates: Rhoplex SG-10M, 10 phr, 120° F., 1 week.
Where [12] appears, read: Rhoplex SG-10M, 10 phr, 120° F., 2 weeks.
Where [13] appears, read: Rhoplex SG-10M, 10 phr, 120° F., 3 weeks.
[14] abbreviates: Rhoplex SG-10M, 10 phr, 120° F., 4 weeks.
The mark [15] stands for this setting: Rhoplex AC 2508, 10 phr coalescent, Initial.
[16] abbreviates: Rhoplex AC 2508, 10 phr, 120° F., 1 week.
Setting [17] is: Rhoplex AC 2508, 10 phr, 120° F., 2 weeks.
Where [18] appears, read: Rhoplex AC 2508, 10 phr, 120° F., 3 weeks.
Setting [19] is: Rhoplex AC 2508, 10 phr, 120° F., 4 weeks.

For `CCCCOCCOCCOC(=O)C(C)(C)C(=O)C(C)C` [Example 5, 2-(2-Butoxyethoxy)ethyl 2,2,4-trimethyl-3-oxopentanoate], the “phr of Coalescent required to lower MFFT to 40° F.” value in series [1] (setting [7]) is recorded as 4.2 phr; in series [1] (setting [8]), 4.6 phr; in series [1] (setting [9]) it was 0.9 phr. Also, in series [2], the “Water Miscibility % solvent in water layer” value is 0.02%. Further, the “Viscosity (cps)” value turned out to be 548 cps in series [3] (setting [10]); 631 cps in series [3] (setting [11]); 461 cps in series [3] (setting [12]); 458 cps in series [3] (setting [13]); 511 cps in series [3] (setting [14]). For the same compound, the pH in series [3] (setting [10]) worked out at 8.6; in series [3] (setting [11]) it was 8.3; in series [3] (setting [12]) it was 8.7; in series [3] (setting [13]) it was 8.6; in series [3] (setting [14]) it was 8.2. For the same compound, the “hydrolytic stability, in words” value in series [3] (Rhoplex SG-10M, compared with industry standards) is “better than the industry standards”. For the same compound, the “Boiling Point (° C. @ 760 torr)” value in series [4] was 272.1 °C. In addition, in “Density, ASTM D 1475-98”, the “Density (lbs/gal)” value was 8.02 lbs/gal. Moreover, the “Water Miscibility % water in solvent layer” value in series [5] is given as 0.40%. Moreover, in series [6], the “% non-volatile @ 110° C. for 1 hour” value amounted to 64.0%.
In the case of `CC(C)C(=O)C(C)(C)C(=O)OCC(C)(C)C(O)C(C)C` (stereo not shown) [Example 3, 3-Hydroxy-2,2,4-trimethylpentyl 2,2,4-trimethyl-3-oxopentanoate], the “phr of Coalescent required to lower MFFT to 40° F.” value worked out at 6.0 phr in series [1] (setting [7]); 9.7 phr in series [1] (latex Rhoplex HG-74P, linear regression); 5.6 phr in series [1] (setting [8]); 1.3 phr in series [1] (setting [9]); 8.2 phr in series [1] (latex Ucar 626, linear regression). In series [2], the “Water Miscibility % solvent in water layer” value was determined as 0.07%. Moreover, the “Viscosity (cps)” value turned out to be 1430 cps in series [3] (setting [15]); 1300 cps in series [3] (setting [16]); 1290 cps in series [3] (setting [17]); 1250 cps in series [3] (setting [18]); 1130 cps in series [3] (setting [19]). For the same compound, the pH in series [3] (setting [15]) is 8.5; in series [3] (setting [16]), 8.4; in series [3] (setting [17]), 8.4; in series [3] (setting [18]), 8.4; in series [3] (setting [19]), 8.3. The “hydrolytic stability, in words” value in series [3] (Rhoplex AC 2508, compared with industry standards) is recorded as “better than the industry standards”. For the same compound, the “Boiling Point (° C. @ 760 torr)” value in series [4] was found to be 287.7 °C. Besides, the “Density (lbs/gal)” value in “Density, ASTM D 1475-98” was determined as 8.13 lbs/gal. For the same compound, the “Water Miscibility % water in solvent layer” value in series [5] is recorded as 2.1%. Besides, the “% non-volatile @ 110° C. for 1 hour” value in series [6] came to 63.8%.

Values taken from patent US9029451B2, “Waterborne coating compositions that include 2,2,4-trimethyl-3-oxopentanoate esters as reactive coalescents” (Eastman Chemical Company, priority 2010, dated 2015).
